Source: the supplement of paper PMC11208160

Experiment: recombinant UMI read abundance after kanamycin selection (control-corrected) (log10(CPM+1)); higher = more efficient recombination; extreme values may be limits of the assay; sequences stand for … in AGTGCAGAGAAAATCGGCCAGTTTTCTCTGCCTGCAGTCCGCATGCCGTGGGACCCCTTGGGTTCTAACCTGTTGCCTAGATTTATGCAGCGGACTGCCTTTCTCCCAAAGTGATAAACCGG…AGGTTGGTTTCACT; site = the 11-nt donor
In short: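 Sequencing read counts were converted to CPM, averaged over two replicates and scaled by control-derived factors. Results are given as log10(CPM+1). The reads covered the donor–target junction of recombinant UMIs from a pooled Escherichia coli screen of donor and donor-binding-loop pairs for the IS621 bridge recombinase.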
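Note: IS621 bridge recombinase in Escherichia coli cells against a fixed T5 target plasmid.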

Sequence | recombinant UMI read abundance (log10)
GAATGCTCATGGACCGGTTTTCCCGGTAATCCGTATTTGAA (site GAATGCTCTTT) | 2.05
GAATGCTCATGGACCGGTTTTCCCGGTAATCCGTATTTGAA (site TAATGCTCTTT) | 0.684
GAATGGCCATGGACCGGTTTTCCCGGTAATCCGTATTTGCA (site AAATGGCCTTG) | 0
GAATGGCCATGGACCGGTTTTCCCGGTAATCCGTATTTGCA (site CAATGGCCTTG) | 0
GAATGGCCATGGACCGGTTTTCCCGGTAATCCGTATTTGCA (site GAAAGGCCTTG) | 0
GAATGGCCATGGACCGGTTTTCCCGGTAATCCGTATTTGCA (site GAACGGCCTTG) | 0
GAATGGCCATGGACCGGTTTTCCCGGTAATCCGTATTTGCA (site GAAGGGCCTTG) | 0
GAATGGCCATGGACCGGTTTTCCCGGTAATCCGTATTTGCA (site GAATAGCCTTG) | 0.926
GAATGGCCATGGACCGGTTTTCCCGGTAATCCGTATTTGCA (site GAATCGCCTTG) | 0.248
GAATGGCCATGGACCGGTTTTCCCGGTAATCCGTATTTGCA (site GAATGACCTTG) | 0
GAATGGCCATGGACCGGTTTTCCCGGTAATCCGTATTTGCA (site GAATGCCCTTG) | 0.0091
GAATGGCCATGGACCGGTTTTCCCGGTAATCCGTATTTGCA (site GAATGGACTTG) | 0.018
GAATGGCCATGGACCGGTTTTCCCGGTAATCCGTATTTGCA (site GAATGGCCTAG) | 0
GAATGGCCATGGACCGGTTTTCCCGGTAATCCGTATTTGCA (site GAATGGCCTCG) | 0.0219
GAATGGCCATGGACCGGTTTTCCCGGTAATCCGTATTTGCA (site GAATGGCCTGG) | 0
GAATGGCCATGGACCGGTTTTCCCGGTAATCCGTATTTGCA (site GAATGGCCTTA) | 0.0192
GAATGGCCATGGACCGGTTTTCCCGGTAATCCGTATTTGCA (site GAATGGCCTTC) | 0.0145
GAATGGCCATGGACCGGTTTTCCCGGTAATCCGTATTTGCA (site GAATGGCCTTG) | 0
GAATGGCCATGGACCGGTTTTCCCGGTAATCCGTATTTGCA (site GAATGGCCTTT) | 0.0193
GAATGGCCATGGACCGGTTTTCCCGGTAATCCGTATTTGCA (site GAATGGGCTTG) | 0.00704
GAATGGCCATGGACCGGTTTTCCCGGTAATCCGTATTTGCA (site GAATGGTCTTG) | 0.0295
GAATGGCCATGGACCGGTTTTCCCGGTAATCCGTATTTGCA (site GAATGTCCTTG) | 0
GAATGGCCATGGACCGGTTTTCCCGGTAATCCGTATTTGCA (site GAATTGCCTTG) | 0

Sequence | recombinant UMI read abundance (log10)
GAATGGCCATGGACCGGTTTTCCCGGTAATCCGTATTTGCA (site GACTGGCCTTG) | 0.0119
GAATGGCCATGGACCGGTTTTCCCGGTAATCCGTATTTGCA (site GAGTGGCCTTG) | 0
GAATGGCCATGGACCGGTTTTCCCGGTAATCCGTATTTGCA (site GATTGGCCTTG) | 0
GAATGGCCATGGACCGGTTTTCCCGGTAATCCGTATTTGCA (site GCATGGCCTTG) | 0
GAATGGCCATGGACCGGTTTTCCCGGTAATCCGTATTTGCA (site GGATGGCCTTG) | 0
GAATGGCCATGGACCGGTTTTCCCGGTAATCCGTATTTGCA (site GTATGGCCTTG) | 0
GAATGGCCATGGACCGGTTTTCCCGGTAATCCGTATTTGCA (site TAATGGCCTTG) | 0.00558
GAATGGGCATGGACCGGTTTTCCCGGTAATCCGTATTTGCA (site GAATGGACTTG) | 1.98
GAATGGGCATGGACCGGTTTTCCCGGTAATCCGTATTTGCA (site GAATGGCCTTG) | 0.00596
GAATGGGCATGGACCGGTTTTCCCGGTAATCCGTATTTGCA (site GAATGGGCTTG) | 2.42
GAATGGGCATGGACCGGTTTTCCCGGTAATCCGTATTTGCA (site GAATGGTCTTG) | 2.23
GACAAAACATGGACCGGTTTTCCCGGTAATCCGTATTTGGT (site GACAAAACTAC) | 0.855
GACAAAACATGGACCGGTTTTCCCGGTAATCCGTATTTGGT (site GACAAACCTAC) | 0
GACAAAACATGGACCGGTTTTCCCGGTAATCCGTATTTGGT (site GACAAAGCTAC) | 0.517
GACAAAACATGGACCGGTTTTCCCGGTAATCCGTATTTGGT (site GACAAATCTAC) | 0
GACAAACCATGGACCGGTTTTCCCGGTAATCCGTATTTGAT (site GACAAACCTAA) | 0
GACAAACCATGGACCGGTTTTCCCGGTAATCCGTATTTGAT (site GACAAACCTAC) | 0
GACAAACCATGGACCGGTTTTCCCGGTAATCCGTATTTGAT (site GACAAACCTAG) | 0
GACAAACCATGGACCGGTTTTCCCGGTAATCCGTATTTGAT (site GACAAACCTAT) | 0
GACAAACCATGGACCGGTTTTCCCGGTAATCCGTATTTGGT (site AACAAACCTAC) | 0
GACAAACCATGGACCGGTTTTCCCGGTAATCCGTATTTGGT (site CACAAACCTAC) | 0
GACAAACCATGGACCGGTTTTCCCGGTAATCCGTATTTGGT (site GAAAAACCTAC) | 0
GACAAACCATGGACCGGTTTTCCCGGTAATCCGTATTTGGT (site GACAAAACTAC) | 0

Sequence | recombinant UMI read abundance (log10)
GACAAACCATGGACCGGTTTTCCCGGTAATCCGTATTTGGT (site GACAAACCTAA) | 0
GACAAACCATGGACCGGTTTTCCCGGTAATCCGTATTTGGT (site GACAAACCTAC) | 0
GACAAACCATGGACCGGTTTTCCCGGTAATCCGTATTTGGT (site GACAAACCTAG) | 0
GACAAACCATGGACCGGTTTTCCCGGTAATCCGTATTTGGT (site GACAAACCTAT) | 0
GACAAACCATGGACCGGTTTTCCCGGTAATCCGTATTTGGT (site GACAAACCTCC) | 0.0384
GACAAACCATGGACCGGTTTTCCCGGTAATCCGTATTTGGT (site GACAAACCTGC) | 0
GACAAACCATGGACCGGTTTTCCCGGTAATCCGTATTTGGT (site GACAAACCTTC) | 0
GACAAACCATGGACCGGTTTTCCCGGTAATCCGTATTTGGT (site GACAAAGCTAC) | 0
GACAAACCATGGACCGGTTTTCCCGGTAATCCGTATTTGGT (site GACAAATCTAC) | 0
GACAAACCATGGACCGGTTTTCCCGGTAATCCGTATTTGGT (site GACAACCCTAC) | 0
GACAAACCATGGACCGGTTTTCCCGGTAATCCGTATTTGGT (site GACAAGCCTAC) | 0.00399
GACAAACCATGGACCGGTTTTCCCGGTAATCCGTATTTGGT (site GACAATCCTAC) | 0
GACAAACCATGGACCGGTTTTCCCGGTAATCCGTATTTGGT (site GACACACCTAC) | 0
GACAAACCATGGACCGGTTTTCCCGGTAATCCGTATTTGGT (site GACAGACCTAC) | 0
GACAAACCATGGACCGGTTTTCCCGGTAATCCGTATTTGGT (site GACATACCTAC) | 0
GACAAACCATGGACCGGTTTTCCCGGTAATCCGTATTTGGT (site GACCAACCTAC) | 0.00428
GACAAACCATGGACCGGTTTTCCCGGTAATCCGTATTTGGT (site GACGAACCTAC) | 0
GACAAACCATGGACCGGTTTTCCCGGTAATCCGTATTTGGT (site GACTAACCTAC) | 0
GACAAACCATGGACCGGTTTTCCCGGTAATCCGTATTTGGT (site GAGAAACCTAC) | 0
GACAAACCATGGACCGGTTTTCCCGGTAATCCGTATTTGGT (site GATAAACCTAC) | 0
GACAAACCATGGACCGGTTTTCCCGGTAATCCGTATTTGGT (site GCCAAACCTAC) | 0
GACAAACCATGGACCGGTTTTCCCGGTAATCCGTATTTGGT (site GGCAAACCTAC) | 0
